The record followed here is patent US9670162B2, “Mitochondrial aldehyde dehyrogenase-2 modulators and methods of use thereof” (The Board of Trustees of the Leland Stanford Junior …, priority 2013, dated 2017).

One may read the IC50 as the point on the concentration scale where inhibition reaches its midpoint. In general, logD refers to the decadic logarithm of the distribution of all forms, ionised or not, between an organic phase and buffer at a given pH. As usually defined, the fraction unbound is free concentration divided by total concentration. In general, half-life refers to the time needed for the level to fall by half in the phase considered. For orientation: inhibition means the change of the read-out against control, counted positive when it falls. Broadly, the Papp A→B is the apparent permeability from the apical to the basolateral side of a cell layer. As a reminder, the Papp B→A is how fast a substance crosses the layer from the basolateral side.

The subject of data set [1] is mice treated with PO 5 g/kg of EtOH. Description: Mouse pharmacodynamics (PD) study after EtOH. It is filed as in vivo. As to the method:
Mice (male C57BL6 (8 to 9 weeks, 20-22 g)) were treated with PO […] of EtOH. Then PO 40 mg/kg or 60 mg/kg compound 161 were administered to the mice. […] FIG. 6 is a graph showing the behavior of mice at 120 min, 180 min, and 300 min. FIG. 7 is a graph showing the alcohol concentration (mg/dL) at 75 min and 180 min.
A PD study of IV administration of compound 161 was also carried out. The mice were treated with PO 5 g/kg of alcohol and were then treated with 10 mg/kg of compound 161 administered through IV. […] FIG. 8 is a graph showing the blood alcohol concentration (mg/dL) versus time (hr).

The target of data set [2] is hERG channel (Homo sapiens, UniProt Q12809). Description: hERG channel patch-clamp. It is filed as cell-based. On the technique in general: hERG is a cardiac potassium channel; its block is linked to QT prolongation.
Data set [3] can be described thus: LogD (pH 7.4). The data set is classed as physicochemical. As to the method:
(§1) In vitro ADMET of compounds of the present disclosure was carried out according to known methods in the art. Below are data for certain compounds of the present disclosure.

Data set [4] can be described thus: Plasma protein binding (PPB), human. The data set is classed as in vitro ADME. The method, then:
as §1

For data set [5], the system named is ALDH-2 (or mutant) enzyme. The experiment in a line: Rate of 4-HNE oxidation by ALDH-2. The data set is classed as biochemical. The conditions noted are these: 4-HNE substrate, O.D. 340 nm, 25° C. As to the method: The effect of compound 161 on the rate of 4-HNE oxidation by ALDH-2 was carried out by methods known in the art. To each well of a 96-well flat bottom UV plate, the following reagents were sequentially added by pipetting:
50 μl of 100 mM sodium pyrophosphate decahydrate (NaPPi, pH 8.4)
25 μl of 10 mM nicotinamide adenine dinucleotide hydrate (NAD)
1 μl of 20 mM testing compound DMSO solution
The plate was then put on a shaker to mix the cocktails in wells. After 5 minutes of mixing, 1 ul of ALDH-2 (or mutant) enzyme was added to each well with the reagent cocktail. DMSO was used as blank control in the plate. The plate was again put on shaker for another 5 minutes of shaking to enhance bonding between testing compounds and the enzyme.
1 ul of 30 mM 4-HNE in water was then added to each of wells containing the above reaction mixture. After a short vigorous mixing, the UV plate was fed into a plate reader to measure kinetic optical density (O.D.) at wavelength 340 nm at 25° C. over 4 minutes. Each point of measurement was taken at a time interval of 40 seconds.

Data set [6] in a line: MLM stability T1/2. It is filed as in vitro ADME. The conditions noted are these: mouse, liver microsomes. The method, then: as §1
(Microsomes from liver hold many membrane-bound enzymes, among them those of drug oxidation.)

The nature of data set [7]: Plasma protein binding (PPB), rat. It is filed as in vitro ADME. As to the method: as §1
The target in data set [8] is CYP3A4 (Homo sapiens, UniProt P08684). The experiment in a line: Cyp inhibition 3A4. It is filed as in vitro ADME. The arrangement: inhibition: dose or concentration left out as unconfirmed. The method, then: as §1
Data set [9] deals with CYP2C9 (Homo sapiens, UniProt P11712). The experiment in a line: Cyp inhibition 2C9. The data set is classed as in vitro ADME. As to the method: as §1
Data set [10] addresses T1, CYP1A2 (Homo sapiens, UniProt P05177).
T1 sequence (P05177 1-516): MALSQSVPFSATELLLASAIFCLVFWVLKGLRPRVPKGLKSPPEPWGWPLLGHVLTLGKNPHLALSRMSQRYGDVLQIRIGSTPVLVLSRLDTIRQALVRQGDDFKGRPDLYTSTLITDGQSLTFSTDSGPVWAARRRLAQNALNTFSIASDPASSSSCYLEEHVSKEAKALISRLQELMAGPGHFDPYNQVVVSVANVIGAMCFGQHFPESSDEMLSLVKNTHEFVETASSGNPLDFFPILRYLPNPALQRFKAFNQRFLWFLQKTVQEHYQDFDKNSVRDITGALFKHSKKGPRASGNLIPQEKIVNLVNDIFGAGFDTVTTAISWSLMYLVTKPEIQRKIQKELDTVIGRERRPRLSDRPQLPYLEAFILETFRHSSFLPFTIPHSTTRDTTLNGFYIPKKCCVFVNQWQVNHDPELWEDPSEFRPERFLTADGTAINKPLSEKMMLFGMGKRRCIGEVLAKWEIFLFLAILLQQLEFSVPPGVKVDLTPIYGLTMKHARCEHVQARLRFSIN
The experiment in a line: Cyp inhibition 1A2. It is filed as in vitro ADME. Also noted: inhibition: dose or concentration left out as unconfirmed. As to the method: as §1

A short description of data set [11]: Caco-2 permeability. The data set is classed as in vitro ADME. As to conditions: human. The method, then:
as §1

Data set [12] relates to unpurified human liver homogenates (liver mitochondria fraction), ALDH. The experiment in a line: ALDH activity in human liver biopsy samples. As to conditions: 20 μM, acetaldehyde substrate, 750 μg protein. The data set is classed as biochemical. As to the method: The study of compounds of the present disclosure on unpurified human liver homogenates was carried out according to methods known in the art. Briefly, 750 μg of the total unpurified protein from the liver mitochondria fraction was used in this assay. The kinetic increase of absorbance at λ340 nm was monitored for 15 minutes for NADH. For the first 3 minutes, the assay was carried in the absence of the substrate or AD-363 to establish the base line. As expected, no NADH production was detected. Substrate acetaldehyde was then added at the 3-min time point and the reaction monitored for the next 6 min to record the catalytic rate in the absence of an activator. Compound 161 (20 μM), was then added at the 9-min time point and the reaction monitored for the next 6 min to record the increase in catalytic rate.

Data set [13] concerns the target CYP2C19 (Homo sapiens, UniProt P33261). Description: Cyp inhibition 2C19. The data set is classed as in vitro ADME. Also noted: inhibition: dose or concentration left out as unconfirmed. As to the method:
as §1

Chain of CYP3A4 (P08684 whole entry): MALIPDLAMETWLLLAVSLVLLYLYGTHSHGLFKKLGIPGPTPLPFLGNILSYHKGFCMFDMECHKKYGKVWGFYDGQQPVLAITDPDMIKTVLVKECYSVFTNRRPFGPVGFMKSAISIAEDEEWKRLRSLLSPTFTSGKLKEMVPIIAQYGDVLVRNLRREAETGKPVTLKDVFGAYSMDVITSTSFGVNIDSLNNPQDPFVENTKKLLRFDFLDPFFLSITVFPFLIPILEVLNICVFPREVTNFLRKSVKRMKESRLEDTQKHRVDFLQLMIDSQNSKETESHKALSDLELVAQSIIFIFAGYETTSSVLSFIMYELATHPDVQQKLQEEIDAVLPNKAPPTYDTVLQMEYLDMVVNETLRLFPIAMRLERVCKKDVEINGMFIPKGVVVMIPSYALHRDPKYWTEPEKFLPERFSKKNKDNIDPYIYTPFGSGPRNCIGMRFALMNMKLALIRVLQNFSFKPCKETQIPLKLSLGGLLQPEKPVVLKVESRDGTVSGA
Chain of CYP2C19 (P33261 whole entry): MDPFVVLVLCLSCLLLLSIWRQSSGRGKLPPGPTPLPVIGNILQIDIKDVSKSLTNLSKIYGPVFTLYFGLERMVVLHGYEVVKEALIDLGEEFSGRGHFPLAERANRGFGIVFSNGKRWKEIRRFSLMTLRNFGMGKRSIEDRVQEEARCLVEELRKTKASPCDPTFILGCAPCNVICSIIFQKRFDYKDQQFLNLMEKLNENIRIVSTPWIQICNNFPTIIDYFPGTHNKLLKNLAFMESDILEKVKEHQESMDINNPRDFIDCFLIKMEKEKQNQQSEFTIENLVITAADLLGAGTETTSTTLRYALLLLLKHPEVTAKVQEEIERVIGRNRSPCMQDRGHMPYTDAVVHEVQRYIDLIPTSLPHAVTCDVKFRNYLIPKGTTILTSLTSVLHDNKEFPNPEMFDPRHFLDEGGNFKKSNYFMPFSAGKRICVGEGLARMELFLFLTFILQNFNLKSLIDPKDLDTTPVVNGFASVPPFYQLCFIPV
Chain of hERG channel (Q12809 whole entry): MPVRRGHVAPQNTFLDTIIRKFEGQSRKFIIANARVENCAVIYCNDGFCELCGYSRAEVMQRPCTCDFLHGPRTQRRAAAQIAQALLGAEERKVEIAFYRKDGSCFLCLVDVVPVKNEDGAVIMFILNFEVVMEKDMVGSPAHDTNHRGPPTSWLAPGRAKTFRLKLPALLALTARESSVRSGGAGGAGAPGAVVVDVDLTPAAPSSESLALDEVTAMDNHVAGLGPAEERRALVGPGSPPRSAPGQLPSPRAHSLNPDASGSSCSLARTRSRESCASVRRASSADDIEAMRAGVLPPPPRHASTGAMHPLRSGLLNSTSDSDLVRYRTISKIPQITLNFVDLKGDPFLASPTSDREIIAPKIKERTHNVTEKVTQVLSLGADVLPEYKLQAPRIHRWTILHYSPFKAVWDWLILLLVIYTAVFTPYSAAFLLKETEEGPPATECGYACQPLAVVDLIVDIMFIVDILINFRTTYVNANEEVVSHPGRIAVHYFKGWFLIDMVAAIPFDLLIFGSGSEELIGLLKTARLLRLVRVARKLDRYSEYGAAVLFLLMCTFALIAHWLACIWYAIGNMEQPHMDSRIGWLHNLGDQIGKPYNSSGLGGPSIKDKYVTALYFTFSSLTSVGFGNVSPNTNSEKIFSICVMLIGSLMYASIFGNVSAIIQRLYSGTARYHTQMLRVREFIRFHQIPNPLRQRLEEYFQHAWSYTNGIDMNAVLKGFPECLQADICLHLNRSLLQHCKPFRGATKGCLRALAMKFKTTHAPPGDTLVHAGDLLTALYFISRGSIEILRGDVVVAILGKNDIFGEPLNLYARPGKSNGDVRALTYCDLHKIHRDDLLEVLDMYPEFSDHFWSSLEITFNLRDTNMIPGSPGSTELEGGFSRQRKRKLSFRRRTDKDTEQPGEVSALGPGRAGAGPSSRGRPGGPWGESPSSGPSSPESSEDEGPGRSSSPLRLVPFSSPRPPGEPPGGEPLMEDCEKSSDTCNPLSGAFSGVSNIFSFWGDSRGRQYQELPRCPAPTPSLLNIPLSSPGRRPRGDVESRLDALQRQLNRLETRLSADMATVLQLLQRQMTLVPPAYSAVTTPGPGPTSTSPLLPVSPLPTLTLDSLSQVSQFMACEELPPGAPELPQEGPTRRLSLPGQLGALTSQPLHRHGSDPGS
Chain of CYP2C9 (P11712 whole entry): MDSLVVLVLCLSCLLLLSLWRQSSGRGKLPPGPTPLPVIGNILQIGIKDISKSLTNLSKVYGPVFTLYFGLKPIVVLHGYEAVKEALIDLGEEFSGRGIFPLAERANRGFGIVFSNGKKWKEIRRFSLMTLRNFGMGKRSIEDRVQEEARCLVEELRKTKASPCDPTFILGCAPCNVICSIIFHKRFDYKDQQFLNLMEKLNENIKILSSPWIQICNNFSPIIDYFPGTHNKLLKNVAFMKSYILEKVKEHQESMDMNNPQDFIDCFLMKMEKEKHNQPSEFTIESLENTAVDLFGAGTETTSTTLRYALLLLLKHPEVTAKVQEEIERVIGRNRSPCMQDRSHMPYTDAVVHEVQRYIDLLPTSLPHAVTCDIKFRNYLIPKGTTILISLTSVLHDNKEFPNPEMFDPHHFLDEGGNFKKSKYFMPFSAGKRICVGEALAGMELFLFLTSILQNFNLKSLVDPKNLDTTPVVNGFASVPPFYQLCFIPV

Consider `COc1ccc(CNC(=O)c2c(Cl)ccnc2OCC2CC2)cc1F` [Compound 161], for which the blood alcohol levels result in [1] (PO 5 g/kg EtOH, compound PO 40 mg/kg or 60 mg/kg) is reported as “reduces blood alcohol levels”; in data set [1] (PO 5 g/kg alcohol, compound 10 mg/kg IV), “reduces blood alcohol levels”. Moreover, the “PD response (behavior observation)” value in data set [1] (PO EtOH, then PO 40 mg/kg or 60 mg/kg) was “significant PD response”. Further, the IC50 in data set [2] was above 30 µM. The compound also registered a logD in data set [3] of 3. Further, the unbound share (fraction unbound) is 0.007 in [4] and 0.039 in [7]. The “rate of 4-HNE oxidation by ALDH-2” value in [5] is given as “accelerate the rate of 4-HNE oxidation”. In [6], the half-life worked out at 2.08 min. The inhibition in data set [8] was 15%; in data set [10], 35%; in data set [13], 16%. Also, the inhibition at 10 µM is 14.9% in data set [8] (10 μM), 5.7% in data set [9], 35.2% in [10] (10 μM) and 15.9% in data set [13] (10 μM). The Papp A→B in data set [11] (A-B, read-out: absorption (Caco-2, Papp, A-B)) stood at 15.7 ×10⁻⁶ cm/s. Besides, the Papp B→A in data set [11] (B-A) was determined as 10.7 ×10⁻⁶ cm/s. The efflux ratio in data set [11] (ratio, read-out: Caco-2 Papp B-A/A-B) was determined as 0.68. Besides, the “increase of human liver enzyme's catalytic rate” value in [12] stood at 2.38 folds.
